# Experimental data taken from ChEMBL document CHEMBL1121785, “Comparison of solution conformational preferences for the hallucinogens bufotenin and psilocin using 360-MHz proton NMR spectroscopy” (J Med Chem, 1981).
# Tests used:
# Assay type in all cases: physicochemical
# [1] = Partition coefficient (logP); details: octanol/water
# [2] = Partition coefficient of octanol and water was determined
# [3] = True partition coefficient corrected for ionization was determined; details: octanol/water
SMILES,logP [1],Poct [2],pKa [3]
CN(C)CCc1c[nH]c2ccc(O)cc12 [BUFOTENINE],1.19,0.16,
CN(C)CCc1c[nH]c2cccc(O)c12 [PSILOCIN],1.45,0.68,3.3
